In PMC11449996 (Clinical Pharmacokinetics, 2024):
In brackets after ≈: the same amount, converted by molar mass. Like-named read-outs stand apart in the source and are kept apart here.

Experiments:
[1] = test system: Staphylococcus epidermidis; settings: bloodstream infection isolates, 72 US and European medical centers; cited from earlier work
[2] = cited from earlier work
[3] = test system: staphylococci; settings: cited from earlier work
[4] = cited from earlier work; remark: listed apart in the source
[5] = test system: hepatic cytochromes; settings: ref 13; cited from earlier work
[6] = test system: C-reactive protein (C-RP) production; format: in vivo, patients
[7] = Population pharmacokinetic model of dalbavancin; format: in vivo, patients
[8] = test system: MRSA; settings: bloodstream infection isolates, 72 US and European medical centers; cited from earlier work
[9] = median of 1000 non-parametric bootstrap iterations
[10] = population estimate, final PK/PD model

- free IC50 on C-RP production ([6]; from total IC50 […] mg/L considering plasma protein binding of 93%): 0.05 µg/mL
- IC50, bootstrap median [6, 9]: 0.58 µg/mL (≈ 0.319 µM)
- clearance ([7]; human, plasma, intravenous, 1500 mg): 0.75 mL/min
- CL, non-renal clearance of dalbavancin, bootstrap median [7, 9]: 0.028 L/h
- Q, bootstrap median [7, 9]: 0.04 L/h
- V1, bootstrap median [7, 9]: 5.98 L
- V2, bootstrap median [7, 9]: 9.08 L
- β_eGFR, bootstrap median [7, 9]: 0.005
- V1, volume of distribution of the central compartment [7, 10]: 5.93 L
- V2, volume of distribution of the peripheral compartment [7, 10]: 9.55 L
- β_eGFR, coefficient of eGFR when dalbavancin CL was scaled to eGFR ([7]; population estimate, final PK/PD model, eGFR by CKD-EPI): 0.0042
Compound: CN[C@H]1C(=O)N[C@@H]2Cc3ccc(cc3)Oc3cc4cc(c3O[C@@H]3O[C@H](C(=O)O)[C@@H](O)[C@H](O)[C@H]3NC(=O)CCCCCCCCC(C)C)Oc3ccc(cc3Cl)[C@@H](O)[C@@H]3NC(=O)[C@H](NC(=O)[C@@H]4NC(=O)[C@@H](NC2=O)c2cc(cc(O)c2Cl)Oc2cc1ccc2O)c1ccc(O)c(c1)-c1c(O[C@H]2O[C@H](CO)[C@@H](O)[C@H](O)[C@@H]2O)cc(O)cc1[C@@H](C(=O)NCCCN(C)C)NC3=O [dalbavancin, Dalbavancin]
- MIC90 [1]: 0.06 µg/mL (≈ 0.033 µM)
- plasma protein binding ([2]; ref 13): 93–98%
- plasma protein binding ([2]; ref 15): 93%
- MIC90, value at which 90% of the wild-type strains are inhibited [3]: 0.0625 µg/mL
- terminal half-life ([4]; intravenous route): 147 to 258 h
- CL, population estimates of previous studies ([4]; ref 5, 25, 26): 0.043 to 0.057 L/h
- V, population estimates of previous studies ([4]; ref 5, 25, 26): 15 to 15.9 L
- administered dose excreted in urine ([4]; ref 13): up to 42%
- drug–drug interactions [5]: no clinically relevant drug–drug interactions
- substrate of the hepatic cytochromes [5]: not a substrate of the hepatic cytochromes
- kout, bootstrap median [6, 9]: 0.0038 h^–1
- kout, elimination rate of C-RP concentration in plasma ([6]; population estimate, final PK/PD model, 211 C-RP plasma concentrations): 0.0037 h^–1
- MIC90 [8]: 0.03 µg/mL (≈ 0.0165 µM)
